Data on 55 compounds can be found in patent publication US7666875B2, “Hydantoin compounds” (Eisai R&D Management Co., Ltd., priority 2005, dated 2010).

Structures are written as SMILES.

For the first assay, the target named is T1, human T-bet (Homo sapiens, UniProt Q9UL17).
T1 construct: expressed in transfected cells; host or cells: engineered HEK cells (HEKT-bet)
T1 sequence (Q9UL17 1-535): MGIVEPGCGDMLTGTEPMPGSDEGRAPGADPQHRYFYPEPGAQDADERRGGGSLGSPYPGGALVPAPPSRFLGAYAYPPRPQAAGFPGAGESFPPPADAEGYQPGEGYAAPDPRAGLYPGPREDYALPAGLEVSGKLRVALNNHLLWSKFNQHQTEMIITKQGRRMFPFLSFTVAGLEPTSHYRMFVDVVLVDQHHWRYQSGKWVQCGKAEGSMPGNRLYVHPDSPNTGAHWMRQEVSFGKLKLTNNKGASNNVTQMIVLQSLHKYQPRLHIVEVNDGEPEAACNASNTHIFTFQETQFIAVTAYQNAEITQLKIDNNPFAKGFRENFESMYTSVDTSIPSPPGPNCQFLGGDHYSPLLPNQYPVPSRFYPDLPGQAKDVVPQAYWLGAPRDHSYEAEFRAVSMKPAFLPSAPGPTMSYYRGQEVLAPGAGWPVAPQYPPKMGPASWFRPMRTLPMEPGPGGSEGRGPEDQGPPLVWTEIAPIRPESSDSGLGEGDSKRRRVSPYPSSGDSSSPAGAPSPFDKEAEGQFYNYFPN
Put plainly: HEKT-bet-luc assay (T-bet dependent luciferase reporter in engineered HEK cells). The settings on record: Table 2; HEKT-bet cells, compound 24 hours; IC50 normalized to reference ER-213038; read-out: IC50. It counts as cell-based. The protocol: HEKT-bet-luc assay: This assay measures a T-bet dependent reporter (luciferase) activity in engineered HEK cells that express a human T-bet and a T-box responsive element driving luciferase reporter. HEKT-bet cells were plated at 2×10^4/well in 96-well plate and compound was added into cell culture for 24 hours. Luciferase activity was measured by adding 50 μl of Steady-Glo reagent (Promega) and samples were read in Victor V reader (PerkinElmer). The IC50 values were calculated utilizing a maximum value corresponding to the amount of luciferase in the absence of a test compound and a minimum value corresponding to a test compound value obtained at maximum inhibition.
Determination of Normalized HEKT-bet IC50 values: Compounds were assayed in microtiter plates. Each plate included a reference compound which was ER-213038. The un-normalized IC50 value for a particular compound was divided by the IC50 value determined for the reference compound in the same microtiter plate to provide a relative potency value. The relative potency value was then multiplied by the established potency of the reference compound to provide the normalized HEKT-bet IC50 value. […] The IC50 values provided herein were obtained using this normalization method.
For orientation: In a reporter assay the amount or activity of a reporter protein is the signal.
Consider `COc1cc(CN2CCC3(CC2)C(=O)N(C/C=C/c2ccccc2)C(=O)N3CCO)cc(OC)c1` [compound 45], for which the IC50 (as a rule, the concentration that inhibits the measured activity by half) is 62 nM.

Staying with this assay, now noted: Table 3; HEKT-bet cells, compound 24 hours; IC50 normalized to reference ER-213038; read-out: IC50.
As for `O=C1N(C/C=C/c2ccccc2)C(=O)C2(CCN(Cc3cccc4ccccc34)CC2)N1CCCO` [Example 88], the IC50 was 798 nM. Turning to `COCCN1C(=O)N(Cc2cccc(OC)c2)C(=O)C12CCN(Cc1cccc(-c3ccsc3)c1)CC2` [Example 85], the IC50 was 750 nM. As for `COCCN1C(=O)N(Cc2cc(C(C)(C)C)cc(C(C)(C)C)c2)C(=O)C12CCN(Cc1ccccc1)CC2` [Example 114], the IC50 was found to be 1740 nM. For the compound `COCCN1C(=O)N(Cc2cccc(OC)c2)C(=O)C12CCN(Cc1cc(O)c(OC)c(OC)c1)CC2` [Example 118], the IC50 is 1880 nM. For the compound `COCCN1C(=O)N(Cc2cccc(OC)c2)C(=O)C12CCN(Cc1ccc3ccc4cccc5ccc1c3c45)CC2` [Example 115], the IC50 came out at 1810 nM.

On to `COCCN1C(=O)N(C/C=C/Cc2cccc(OC)c2)C(=O)C12CCN(Cc1ccccc1)CC2` [Example 89], for which the half-inhibitory concentration (IC50) is 835 nM.

As to `COc1cccc(CN2CCC3(CC2)C(=O)N(Cc2cc(OC)cc(OC)c2)C(=O)N3Cc2ccc3c(c2)nnn3C)c1` [Example 97], the IC50 turned out to be 1080 nM.

The same assay, now with this note: Table 4; HEKT-bet cells, compound 24 hours; IC50 normalized to reference ER-213038; read-out: IC50.
As for `CCN1C(=O)N(Cc2cccc(OC)c2)C(=O)C12CCN(Cc1cc(OC)cc(OC)c1)CC2` [Example 137], the IC50 came out at 124 nM.

In the case of `COCN1C(=O)N(/C=C/Cc2ccccc2)C(=O)C12CCN(Cc1cc(OC)cc(OC)c1)CC2` [Example 296], the IC50 was 586 nM. On the same count and under the same terms, under `COCCN1C(=O)N(Cc2cccc(OC)c2)C(=O)C12CCN(Cc1cccc(OC)c1)CC2` [Example 178] stands 205 nM. Turning to `CCN1C(=O)N(CCCc2ccccc2)C(=O)C12CCN(Cc1cccc(C)c1)CC2` [Example 252], the IC50 came out at 448 nM. Regarding `COCCN1C(=O)N(Cc2cc(OC)cc(OC)c2)C(=O)C12CCN(Cc1cc(OC)cc(OC)c1)CC2` [Example 183], the IC50 was 230 nM. Still for that read-out and setting: to `CCN1C(=O)N(Cc2cccc(OC)c2)C(=O)C12CCN(Cc1cccc(C)c1)CC2` [Example 266] belongs 510 nM. `COCCN1C(=O)N(Cc2cccc(OC)c2)C(=O)C12CCN(Cc1cccc3cc[nH]c13)CC2` [Example 267]: the IC50 was found to be 510 nM. In the case of `COc1cc(CN2CCC3(CC2)C(=O)N(Cc2cc(OC)cc(OC)c2)C(=O)N3C)cc(OC)c1` [Example 144], the IC50 stood at 134 nM. On the same count and under the same terms, under `COCCN1C(=O)N(Cc2cccc(OC)c2)C(=O)C12CCN(Cc1ccccc1)CC2` [Example 234] stands 387 nM; under `CCOc1ccc(OCC)c(CN2CCC3(CC2)C(=O)N(Cc2cccc(OC)c2)C(=O)N3CCOC)c1` [Example 271], 522 nM; under `CCN1C(=O)N(CCCOc2ccccc2)C(=O)C12CCN(Cc1cc(OC)cc(OC)c1)CC2` [Example 217], 350 nM. Same read-out and setting: to `COc1cccc(CN2C(=O)N(Cc3ccc(-n4cccn4)cc3)C3(CCN(Cc4cccc5ccccc45)CC3)C2=O)c1` [Example 140] belongs 127 nM; to `COc1cccc(CN2C(=O)N(Cc3ccccc3)C3(CCN(Cc4cc(OC)cc(OC)c4)CC3)C2=O)c1` [Example 293], 579 nM; to `COCCN1C(=O)N(Cc2cccc(OC)c2)C(=O)C12CCN(Cc1cccc(-c3cccc(OC)c3)c1)CC2` [Example 259], 484 nM. For the compound `COCCN1C(=O)N(Cc2cccc(OC)c2)C(=O)C12CCN(Cc1cccc(-c3ccc(NC(C)=O)cc3)c1)CC2` [Example 238], the IC50 turned out to be 414 nM.

Turning to `COCCN1C(=O)N(Cc2cccc(OC)c2)C(=O)C12CCN(Cc1ccc3c(c1)Cc1ccccc1-3)CC2` [Example 257], the IC50 was found to be 479 nM. Consider `COCCN1C(=O)N(Cc2cccc(OC)c2)C(=O)C12CCN(Cc1csc3ccccc13)CC2` [Example 172], for which the IC50 is 193 nM. Still for that read-out and setting: under `COc1cccc(CN2C(=O)N(C)C3(CCN(Cc4cccc5ccccc45)CC3)C2=O)c1` [Example 148] stands 143 nM; under `CCN1C(=O)N(Cc2ccc3ccccc3c2)C(=O)C12CCN(Cc1cc(OC)cc(OC)c1)CC2` [Example 177], 205 nM. The same measure, in the same setting: under `COCCN1C(=O)N(Cc2cccc(F)c2)C(=O)C12CCN(Cc1cc(OC)cc(OC)c1)CC2` [Example 163] stands 182 nM; under `COCCN1C(=O)N(Cc2cccc(OC)c2)C(=O)C12CCN(Cc1cc3c(OC)cccc3cc1OC)CC2` [Example 180], 223 nM. Still for that read-out and setting: to `O=C1N(C/C=C/c2ccccc2)C(=O)C2(CCN(Cc3cccc4ccccc34)CC2)N1Cc1cccnc1` [Example 185] belongs 235 nM; to `COc1cccc(CN2C(=O)N(CCCO)C3(CCN(Cc4cccc5ccccc45)CC3)C2=O)c1` [Example 216], 349 nM; to `COCCN1C(=O)N(Cc2cccc(OC)c2)C(=O)C12CCN(Cc1c(C)c(C)cc(C)c1C)CC2` [Example 192], 260 nM. For `COCCN1C(=O)N(CCCc2ccccc2OC)C(=O)C12CCN(Cc1ccccc1)CC2` [Example 291], the IC50 is 572 nM. On the same count and under the same terms, to `COCCCN1C(=O)N(Cc2cc(OC)cc(OC)c2)C(=O)C12CCN(Cc1cc(OC)cc(OC)c1)CC2` [Example 207] belongs 317 nM. On the same count and under the same terms, to `O=C1N(C/C=C/c2ccccc2)C(=O)C2(CCN(Cc3cccc4ccccc34)CC2)N1Cc1cccc2cccnc12` [Example 247] belongs 436 nM; to `COc1cc(CN2CCC3(CC2)C(=O)N(C/C=C/c2ccccc2)C(=O)N3Cc2cccc(-n3cccc3)c2)cc(OC)c1` [Example 126], 73 nM. Same read-out and setting: to `O=C1N(C/C=C/c2ccccc2)C(=O)C2(CCN(Cc3cccc4ccccc34)CC2)N1Cc1ccc(-n2cccn2)cn1` [Example 182] belongs 226 nM; to `COCCN1C(=O)N(Cc2cccc(OC)c2)C(=O)C12CCN(Cc1c(C)cc(C)cc1C)CC2` [Example 186], 236 nM; to `COCCN1C(=O)N(Cc2cccc(OC)c2)C(=O)C12CCN(Cc1cccc(N(C)C)c1)CC2` [Example 274], 528 nM. Consider `COCCN1C(=O)N(Cc2cccc(OC)c2)C(=O)C12CCN(Cc1ccc3c4c(cccc14)CC3)CC2` [Example 147], for which the IC50 came to 142 nM. Turning to `COc1cccc(CN2C(=O)N(CCO)C3(CCN(Cc4cc(OC)cc(OC)c4)CC3)C2=O)c1` [Example 200], the IC50 amounted to 285 nM.

On to `COCCN1C(=O)N(Cc2cccc(OC)c2)C(=O)C12CCN(Cc1c3ccccc3c(C)c3ccccc13)CC2` [Example 175], for which the IC50 stood at 200 nM. On the same count and under the same terms, under `CCN1C(=O)N(CCCc2ccccc2)C(=O)C12CCN(Cc1cccc3ccccc13)CC2` [Example 280] stands 546 nM.

On to `COCCN1C(=O)N(Cc2cccc(OC)c2)C(=O)C12CCN(Cc1ccc(OC)c(OC)c1C)CC2` [Example 219], for which the IC50 is 362 nM.

For `COc1cccc(CN2C(=O)N(CCCO)C3(CCN(Cc4cc(OC)cc(OC)c4)CC3)C2=O)c1` [Example 285], the IC50 was 553 nM. Turning to `O=C1N(C/C=C/c2ccccc2)C(=O)C2(CCN(Cc3cccc4ccccc34)CC2)N1Cc1ccccn1` [Example 240], the IC50 was found to be 420 nM.

Turning to `COCCN1C(=O)N(Cc2cccc(OC)c2)C(=O)C12CCN(Cc1c(Cl)ccc(C)c1F)CC2` [Example 275], the IC50 came out at 532 nM. Take `COCCN1C(=O)N(CCCc2ccccc2OC)C(=O)C12CCN(Cc1ccccc1)CC2` [Example 222]: the IC50 turned out to be 366 nM. In the case of `COCCN1C(=O)N(Cc2cccc(OC)c2)C(=O)C12CCN(Cc1nn(-c3ccccc3)nc1C)CC2` [Example 245], the IC50 came out at 432 nM.

In the case of `COc1cccc(CN2C(=O)N(Cc3ccc(-n4cccn4)cc3)C3(CCN(Cc4cc(OC)cc(OC)c4)CC3)C2=O)c1` [Example 155], the IC50 was 159 nM. `COCCN1C(=O)N(Cc2ccc3ccccc3c2)C(=O)C12CCN(Cc1ccc3ccccc3c1)CC2` [Example 250]: the IC50 was determined as 442 nM. As to `COCCN1C(=O)N(Cc2cccc(OC)c2)C(=O)C12CCN(Cc1cccc(N(C)c3ccccc3)c1)CC2` [Example 276], the IC50 is 538 nM.

Regarding `COCCN1C(=O)N(Cc2cccc(OC)c2)C(=O)C12CCN(Cc1ccc(C)cc1C)CC2` [Example 199], the IC50 was 279 nM.

For `COCN1C(=O)N(Cc2cc(OC)cc(OC)c2)C(=O)C12CCN(Cc1cc(OC)cc(OC)c1)CC2` [Example 154], the IC50 worked out at 153 nM.

The same assay, now with this note: reference compound used for normalization on each microtiter plate; read-out: established potency of the reference compound (HEKT-bet IC50).
On to `COCCN1C(=O)N(Cc2cccc(OC)c2)C(=O)C12CCN(Cc1cccc(OC)c1)CC2` [Example 170], for which the IC50 was found to be 190 nM.
